Data set [1] is described as follows: Displacement of [3H]MK-801 from NMDA-NR2B receptor in porcine hippocampus synaptosomal fractions under nonequilibrium conditions after 15 mins. The format is tissue-based, Sus scrofa.
Data set [2] in a line: Displacement of [3H]-ifenprodil from ifenprodil binding site of NMDA receptor in porcine hippocampus synaptosomal fractions after 2 hrs. The format is tissue-based, Sus scrofa.
A short description of data set [3]: Displacement of [3H]MK-801 from high affinity site of NMDA-NR2B receptor in porcine hippocampus synaptosomal fractions after 15 mins. The format is tissue-based, Sus scrofa.
The next data set addresses hERG (KCNH2) (Homo sapiens, UniProt Q12809). Kind of data set: Residual current of human ERG expressed in CHO-K1 cells at 100 uM by patch clamp electrophysiological assay relative to control. The following applies: CHO-K1 cells expressing human ERG.
The nature of data set [4]: Displacement of [3H]MK-801 from low affinity site of NMDA receptor in porcine hippocampus synaptosomal fractions after 15 mins. The format is tissue-based, Sus scrofa.
Data set [5] can be described thus: Displacement of [3H]-ifenprodil from ifenprodil binding site of NMDA receptor low affinity site in porcine hippocampus synaptosomal fractions after 2 hrs. The format is tissue-based, Sus scrofa.
The species entered for data set [6] is Sus scrofa. Kind of data set: Displacement of [3H]-ifenprodil from ifenprodil binding site of NMDA receptor in porcine hippocampus synaptosomal fractions at 100 uM after 2 hrs relative to control. Format: tissue-based.
The species entered for data set [7] is Sus scrofa. In words: Displacement of [3H]MK-801 from NMDA-NR2B receptor in porcine hippocampus synaptosomal fractions at 100 uM after 15 mins relative to control. Format: tissue-based.

SMILES strings stand for the structures.

These results are taken from ChEMBL document CHEMBL1833813, “Synthesis of a series of γ-amino alcohols comprising an N-methyl isoindoline moiety and their evaluation as NMDA receptor antagonists” (Bioorg Med Chem Lett, 2011).

Sequence of hERG (KCNH2) (Q12809 whole entry): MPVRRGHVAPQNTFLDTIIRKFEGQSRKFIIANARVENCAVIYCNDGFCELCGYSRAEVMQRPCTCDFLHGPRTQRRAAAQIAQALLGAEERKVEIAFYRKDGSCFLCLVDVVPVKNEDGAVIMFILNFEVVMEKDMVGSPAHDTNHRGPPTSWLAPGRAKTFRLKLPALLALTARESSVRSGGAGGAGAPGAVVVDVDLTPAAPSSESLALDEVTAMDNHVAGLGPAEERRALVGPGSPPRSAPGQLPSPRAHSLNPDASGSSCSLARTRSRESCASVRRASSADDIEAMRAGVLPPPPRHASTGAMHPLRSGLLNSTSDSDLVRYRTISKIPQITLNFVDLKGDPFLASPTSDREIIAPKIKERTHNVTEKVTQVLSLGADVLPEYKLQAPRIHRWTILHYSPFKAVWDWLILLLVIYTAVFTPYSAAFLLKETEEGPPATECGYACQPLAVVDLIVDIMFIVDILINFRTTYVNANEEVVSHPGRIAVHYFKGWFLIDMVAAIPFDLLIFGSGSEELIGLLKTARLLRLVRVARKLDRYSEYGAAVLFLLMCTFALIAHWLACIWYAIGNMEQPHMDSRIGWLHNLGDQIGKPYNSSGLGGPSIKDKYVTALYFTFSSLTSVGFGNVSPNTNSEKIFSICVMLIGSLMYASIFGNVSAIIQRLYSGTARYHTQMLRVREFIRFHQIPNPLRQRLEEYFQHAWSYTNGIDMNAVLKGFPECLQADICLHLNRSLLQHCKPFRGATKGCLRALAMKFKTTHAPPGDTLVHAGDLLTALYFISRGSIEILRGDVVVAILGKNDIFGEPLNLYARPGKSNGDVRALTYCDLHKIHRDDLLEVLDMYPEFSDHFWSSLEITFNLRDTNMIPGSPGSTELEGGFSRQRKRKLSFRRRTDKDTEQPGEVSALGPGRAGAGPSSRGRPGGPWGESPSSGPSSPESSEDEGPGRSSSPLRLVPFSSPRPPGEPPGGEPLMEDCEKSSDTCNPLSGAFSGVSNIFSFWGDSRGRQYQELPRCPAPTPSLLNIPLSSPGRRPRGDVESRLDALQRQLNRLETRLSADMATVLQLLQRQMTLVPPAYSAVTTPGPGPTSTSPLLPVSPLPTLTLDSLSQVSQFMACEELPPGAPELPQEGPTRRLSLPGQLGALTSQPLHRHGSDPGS

For `CN1Cc2ccccc2[C@H]1C[C@H](O)c1ccc(Cl)cc1`, the figures for the IC50 in data set [1] and in data set [2] were 47 µM and 21 µM, respectively.
Regarding `Cc1ccc([C@@H](O)C[C@H]2c3ccccc3CN2C)cc1`, the half-maximal inhibitory concentration (IC50) in data set [3] stood at 0.21 µM; in data set [2] it was 0.43 µM; in data set [4], 20 µM. For the same compound, the residual current at 100 µM on hERG (KCNH2) stood at 2.6%.
Turning to `COc1cc2c(cc1OC)[C@H](C[C@H](O)c1ccc(Cl)cc1)N(C)CC2`, the half-maximal inhibitory concentration (IC50) in data set [3] came to 0.103 µM; in data set [4], 23.5 µM; in data set [5], 22.5 µM.
With `CN1Cc2ccccc2[C@H]1C[C@H](O)c1ccc([N+](=O)[O-])cc1`, the IC50 was determined as 43 µM in data set [1] and 42 µM in data set [2].
Take `CN1Cc2ccccc2[C@@H]1C[C@@H](O)c1ccc(Cl)cc1`: in data set [1], the IC50 was 26 µM. In addition, the Activity in the data set filed under Sus scrofa [6] turned out to be 77%.
Consider `CN1Cc2ccccc2[C@@H]1C[C@H](O)c1ccc([N+](=O)[O-])cc1`, for which the IC50 in data set [1] turned out to be 43 µM; in data set [2], 7.5 µM.
`Cc1ccc([C@H](O)C[C@H]2c3ccccc3CN2C)cc1` registered an IC50 in data set [1] of 28 µM. Besides, in the data set filed under Sus scrofa [6], the Activity amounted to 65%.
`CN1Cc2ccccc2[C@H]1C[C@@H](O)c1ccc(Cl)cc1` registered an IC50 in data set [2] of 11 µM. For the same compound, the Activity in the data set listed under Sus scrofa [7] is 78%.
In the case of `Cc1ccc([C@@H](O)C[C@@H]2c3ccccc3CN2C)cc1`, the IC50 in data set [1] is 23 µM; in data set [2], 9.3 µM.
Regarding `CN1Cc2ccccc2[C@H]1C[C@@H](O)c1ccc([N+](=O)[O-])cc1`, the IC50 in data set [2] came out at 52 µM. In the data set listed under Sus scrofa [7], this compound came in with an Activity of 82%.
Consider `CN1Cc2ccccc2[C@@H]1C[C@H](O)c1ccc(Cl)cc1`, for which the figures for the IC50 in data set [3], in data set [2] and in data set [4] were 0.5 µM, 0.27 µM and 67 µM, respectively. Further, at hERG (KCNH2), the residual current at 100 µM was determined as 1.6%.
For the compound `Cc1ccc([C@H](O)C[C@@H]2c3ccccc3CN2C)cc1`, the figures for the IC50 in data set [1] and in data set [2] were 31 µM and 35 µM, respectively.
In data set [1], `CN1Cc2ccccc2[C@@H]1C[C@@H](O)c1ccc([N+](=O)[O-])cc1` displayed an IC50 of 39 µM. In the data set filed under Sus scrofa [6], this compound gave an Activity of 54%.
